According to ChEMBL document CHEMBL1201862, “PubChem BioAssay data set” (2004):
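Briefly, cells in 96-well plates were exposed to five compound concentrations for 48 h, and endpoints were estimated by linear interpolation. GI50 = concentration required for 50% inhibition of growth.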 Activity calls are given as the source filed them. Cut-off read from the data, not from the text of the source: active = GI50 up to about 1.1 µM and inactive = higher. Square brackets hold non-standard residues; d marks the D form. Peptide text beside a SMILES is read from it. * marks the point of attachment. X26 = COC1=CC(=O)N(C(=O)[C@@H](O*)C(C)C)[C@H]1Cc1ccccc1; Bn2Val = CC(C)[C@@H](C(=O)*)N(Cc1ccccc1)Cc1ccccc1; NMeV = CN[C@H](C(=O)O)C(C)C; dNMeA = CN[C@H](C)C(=O)O

Legend:
Test in all cases: NCI-60 cell line screen, 48 h
LOX IMVI = tested on: LOX IMVI
CCRF-CEM = tested on: CCRF-CEM
A498 = tested on: A498
K562 = tested on: K562
T47D = tested on: T47D
MDA-MB-231 = tested on: MDA-MB-231
TK-10 = tested on: TK-10
U-251 = tested on: U-251
M14 = tested on: M14
MOLT-4 = tested on: MOLT-4
CAKI-1 = tested on: CAKI-1
SK-OV-3 = tested on: SK-OV-3
EKVX = tested on: EKVX
OVCAR-8 = tested on: OVCAR-8
A549 = tested on: A549
SW-620 = tested on: SW-620
NCI-H460 = tested on: NCI-H460
ACHN = tested on: ACHN
SNB-75 = tested on: SNB-75
NCI-H226 = tested on: NCI-H226

Measured: GI50

O=C(/C=C/c1cc2ccccc2o1)N1CCN(c2ccccn2)CC1
inactive: LOX IMVI > 100 µM | CCRF-CEM > 100 µM | A498 > 100 µM | K562 > 100 µM | T47D 44.3 µM | MDA-MB-231 90.2 µM | TK-10 79.6 µM | U-251 > 100 µM | M14 71.6 µM | MOLT-4 19 µM | CAKI-1 > 100 µM | SK-OV-3 > 100 µM | EKVX 95.5 µM | OVCAR-8 > 100 µM | A549 > 100 µM | SW-620 > 100 µM | NCI-H460 91.6 µM

CC(C)(C)N1C(=O)[N-]/[N+](=C(/C(c2ccccc2)=[N+]2/[N-]C(=O)N(C(C)(C)C)C2=O)c2ccccc2)C1=O
inactive: LOX IMVI > 100 µM | CCRF-CEM > 100 µM | A498 > 100 µM | K562 > 100 µM | ACHN > 100 µM | T47D > 100 µM | MDA-MB-231 > 100 µM | TK-10 > 100 µM | U-251 > 100 µM | M14 > 100 µM | MOLT-4 > 100 µM | CAKI-1 > 100 µM | SK-OV-3 > 100 µM | A549 > 100 µM | SW-620 > 100 µM | NCI-H460 > 100 µM | SNB-75 > 100 µM

COc1ccc(C2N(c3ccc(F)c([N+](=O)[O-])c3)C(=O)N3C(c4ccc(OC)cc4)N(c4ccc(F)c([N+](=O)[O-])c4)C(=O)N23)cc1 (stereo unspecified)
inactive: LOX IMVI > 100 µM | CCRF-CEM > 100 µM | A498 > 100 µM | ACHN > 100 µM | T47D > 100 µM | MDA-MB-231 57.1 µM | TK-10 > 100 µM | U-251 > 100 µM | M14 65.9 µM | CAKI-1 > 100 µM | EKVX > 100 µM | OVCAR-8 > 100 µM | A549 > 100 µM | SW-620 > 100 µM | NCI-H460 > 100 µM | SNB-75 > 100 µM

CCOC(=O)c1ccc(/N=C2\Sc3nc4ccccc4n3\C2=N\c2ccc(C(=O)OCC)cc2)cc1
inactive: NCI-H226 29.2 µM | LOX IMVI 14.2 µM | CCRF-CEM > 100 µM | A498 34.3 µM | ACHN 22.3 µM | T47D 48.1 µM | MDA-MB-231 22.5 µM | TK-10 17.3 µM | M14 16 µM | MOLT-4 9.77 µM | CAKI-1 23 µM | SK-OV-3 40.8 µM | EKVX 42.6 µM | OVCAR-8 29.4 µM | A549 25.2 µM | SW-620 21.5 µM | NCI-H460 22.5 µM

Cc1cc(C)cc(C(=N)c2ccccc2Cc2cccc3ccccc23)c1
inactive: NCI-H226 14.6 µM | LOX IMVI 18 µM | CCRF-CEM 9.73 µM | A498 27.9 µM | K562 16.3 µM | ACHN 16.6 µM | T47D 16.3 µM | MDA-MB-231 > 100 µM | TK-10 25.6 µM | U-251 40.6 µM | M14 16.5 µM | MOLT-4 9.64 µM | CAKI-1 19.5 µM | SK-OV-3 17.5 µM | EKVX 16.7 µM | OVCAR-8 18 µM | A549 16 µM | SW-620 15.2 µM | NCI-H460 13.5 µM

COc1cc(Br)c(OC)c2c(OC)cc(C)cc12
inactive: NCI-H226 > 100 µM | LOX IMVI > 100 µM | CCRF-CEM 42.5 µM | A498 > 100 µM | K562 67 µM | ACHN > 100 µM | T47D 54.5 µM | MDA-MB-231 89.9 µM | TK-10 > 100 µM | U-251 > 100 µM | M14 64.7 µM | MOLT-4 20 µM | SK-OV-3 > 100 µM | OVCAR-8 > 100 µM | SW-620 > 100 µM | NCI-H460 > 100 µM | SNB-75 14.3 µM

CCCCc1ccc(N2C(=O)c3cccnc3S2(=O)=O)cc1
inactive: NCI-H226 > 100 µM | CCRF-CEM > 100 µM | A498 > 100 µM | K562 > 100 µM | ACHN > 100 µM | T47D > 100 µM | MDA-MB-231 > 100 µM | U-251 > 100 µM | M14 > 100 µM | MOLT-4 > 100 µM | CAKI-1 > 100 µM | SK-OV-3 > 100 µM | EKVX > 100 µM | OVCAR-8 > 100 µM | A549 > 100 µM | SW-620 > 100 µM | NCI-H460 > 100 µM | SNB-75 > 100 µM

O=[N+]([O-])/C=C\c1c[nH]c2ccc(OCc3ccccc3)cc12
inactive: NCI-H226 2.18 µM | LOX IMVI 1.86 µM | CCRF-CEM 4.26 µM | A498 10.5 µM | K562 2.55 µM | ACHN 2.13 µM | T47D 2.64 µM | MDA-MB-231 3.57 µM | TK-10 10.4 µM | U-251 5.85 µM | M14 2.18 µM | MOLT-4 3.6 µM | CAKI-1 20.6 µM | SK-OV-3 17.5 µM | EKVX 13.4 µM | OVCAR-8 4.27 µM | A549 4.31 µM | SW-620 2.51 µM | NCI-H460 4.43 µM

O=c1[nH]c2c(C(F)(F)F)c(Cl)c(-c3ccccc3)nc2o1
inactive: NCI-H226 30.3 µM | LOX IMVI 27.1 µM | CCRF-CEM 10 µM | A498 57.8 µM | K562 27.2 µM | ACHN 65.5 µM | T47D 20.2 µM | MDA-MB-231 25.1 µM | TK-10 31.2 µM | U-251 19.3 µM | M14 21.5 µM | MOLT-4 13.7 µM | CAKI-1 34.4 µM | SK-OV-3 23.6 µM | EKVX 14.8 µM | OVCAR-8 31.3 µM | A549 19.8 µM | SW-620 33.8 µM | NCI-H460 23.9 µM

CN(C)CCCNCc1cccc2ccccc12
inactive: NCI-H226 > 100 µM | LOX IMVI > 100 µM | CCRF-CEM > 100 µM | A498 > 100 µM | K562 > 100 µM | ACHN > 100 µM | T47D > 100 µM | MDA-MB-231 > 100 µM | TK-10 > 100 µM | U-251 > 100 µM | M14 66.5 µM | MOLT-4 > 100 µM | SK-OV-3 > 100 µM | EKVX > 100 µM | OVCAR-8 > 100 µM | A549 > 100 µM | SW-620 > 100 µM | NCI-H460 > 100 µM | SNB-75 > 100 µM

COC1=CC(=O)N(C(=O)[C@@H](OC(=O)[C@@H](C)N(C)C(=O)[C@@H]2CCCN2C(=O)[C@H](C(C)C)N(C)C(=O)[C@@H](NC(=O)[C@H](C(C)C)N(Cc2ccccc2)Cc2ccccc2)C(C)C)C(C)C)[C@H]1Cc1ccccc1 (Bn2Val-V[NMeV]P[dNMeA]-X26)
inactive: NCI-H226 > 26.3 µM | LOX IMVI > 100 µM | CCRF-CEM > 100 µM | A498 38.2 µM | K562 6.78 µM | ACHN > 100 µM | T47D > 100 µM | MDA-MB-231 13.4 µM | TK-10 > 100 µM | U-251 11.4 µM | M14 68.1 µM | CAKI-1 > 100 µM | SK-OV-3 > 100 µM | EKVX > 44.5 µM | OVCAR-8 > 100 µM | A549 > 100 µM | SW-620 > 100 µM | NCI-H460 > 100 µM
